Results taken from patent publication US7256208B2 (priority 2003, dated 2007).

Experiments:
[1] = biological target: T1, AR (Rattus norvegicus, UniProt P15207)
T1 sequence (P15207 1-902): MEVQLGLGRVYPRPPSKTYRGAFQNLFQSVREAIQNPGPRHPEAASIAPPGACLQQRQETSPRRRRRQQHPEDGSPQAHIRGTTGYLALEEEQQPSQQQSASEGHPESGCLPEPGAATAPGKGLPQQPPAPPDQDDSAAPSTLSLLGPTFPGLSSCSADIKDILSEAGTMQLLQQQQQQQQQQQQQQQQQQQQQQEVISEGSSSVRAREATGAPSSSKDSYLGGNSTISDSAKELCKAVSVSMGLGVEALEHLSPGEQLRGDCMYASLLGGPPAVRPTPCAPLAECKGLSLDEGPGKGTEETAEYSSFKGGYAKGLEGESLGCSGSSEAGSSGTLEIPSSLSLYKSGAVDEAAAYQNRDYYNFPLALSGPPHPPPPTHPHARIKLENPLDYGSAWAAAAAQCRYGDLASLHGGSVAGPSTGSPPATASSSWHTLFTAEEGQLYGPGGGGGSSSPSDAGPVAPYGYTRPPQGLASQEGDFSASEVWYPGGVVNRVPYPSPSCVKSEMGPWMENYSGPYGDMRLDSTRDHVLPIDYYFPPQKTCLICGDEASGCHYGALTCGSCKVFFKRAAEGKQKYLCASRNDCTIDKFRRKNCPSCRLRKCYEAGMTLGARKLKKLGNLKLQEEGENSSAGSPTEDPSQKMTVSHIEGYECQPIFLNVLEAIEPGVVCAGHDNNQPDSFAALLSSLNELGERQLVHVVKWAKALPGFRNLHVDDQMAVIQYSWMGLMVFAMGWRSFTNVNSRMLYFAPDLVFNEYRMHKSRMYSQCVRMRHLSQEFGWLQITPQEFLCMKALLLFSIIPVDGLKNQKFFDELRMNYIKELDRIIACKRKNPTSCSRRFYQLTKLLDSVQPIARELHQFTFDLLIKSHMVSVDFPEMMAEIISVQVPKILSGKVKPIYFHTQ
From the text: The activity of compounds of the present invention as AR agonists was investigated in an immature male rat model, a recognized test of anabolic effects in muscle and sustaining effects in sex organs for a given compound, as described in L. G. Hershberger et al., Proc. Soc. […] Biol. Med., 83, 175 (1953); B. L. Beyler et al, “Methods for evaluating anabolic and catabolic agents in laboratory animals”, J. Amer. Med. Women's Ass., 23, 708 (1968); H. Fukuda et al., “Investigations of the levator ani muscle as an anabolic steroid assay”, Nago Dai. Yak. Ken. Nem. 14, 84 (1966) the disclosures of which are herein incorporated by reference.
The basis of this assay lies in the well-defined action of androgenic agents on the maintenance and growth of muscle tissues and sexual accessory organs in animals and man. […] J. Anat. […] Ital. Biol. Sper. […] II. […] Ital. Biol. Sper. 42, 1600 (1966); A. Boris et al., Steroids 15, 61 (1970). As described above, the effects of androgens on maintenance of male sexual accessory organs, such as the prostate and seminal vesicles, is well described. Castration results in rapid involution and atrophy of the prostate and seminal vesicles. This effect can be reversed by exogenous addition of androgens. […]

[2] = tested on: wild type AR (MDA 453 cells); conditions: read-out: Kd for [3H]-DHT, Scatchard analysis
Protocol: For the whole-cell binding assay, human LNCaP cells (T877A mutant AR) or MDA 453 (wild type AR) in 96-well microtiter plates containing RPMI 1640 or DMEM supplemented with 10% charcoal stripped CA-FBS (Cocaleco Biologicals) respectively, were incubated at 37° C. to remove any endogenous ligand that might be complexed with the receptor in the cells.
For the saturation analysis, the difference between the total binding and the non-specific binding, was defined as specific binding. […] See e.g. D. Rodbard, Mathematics and statistics of ligand assays: an illustrated guide: In: J. Langon and J. J. Clapp, eds., Ligand Assay, Masson Publishing U.S.A., Inc., New York, pp. 45-99, (1981), the disclosure of which is herein incorporated by reference.
Two replicates were used for each sample.

## N#Cc1ccc(N2C(=O)N/C(=C\c3ccccc3O)C2=O)c2ccccc12
other
  melting point: 251 to 252 °C

## N#Cc1ccc(N2C(=O)N/C(=C\c3ccc(O)cc3)C2=O)c2ccccc12
other
  melting point: > 275 °C

## CCC(=O)O[C@H]1CC[C@H]2[C@@H]3CCC4=CC(=O)CC[C@]4(C)[C@H]3CC[C@]12C [TP, testosterone propionate]
[1]; TP versus free T
  potency relative to free T: 10-30 fold
[1]; castrated rats, dosing for 3 days
  EC50 (increase in organ weight): ~0.03 mg

## tritiated dihydrotestosterone [[^3H]-DHT]
[2]
  Kd: 0.7 nM
